Laboratory results published in patent US20220118159A1, “ANTIOXIDANT-RELEASING VITREOUS SUBSTITUTES AND USES THEREOF” (Ohio State Innovation Foundation, priority 2019, published 2022).
“Also recorded” adds a separate entry of the source. Like-named read-outs stand apart in the source and are kept apart here. Values belong to the compound of their own block, whether it stands above or below them.

Key:
LEC [1] = experiment: CellTiter-Glo luminescent cell viability assay
Experimental: (§1) Cell Viability and ROS Activity Assays. ARPE-19 and LEC were seeded in 96-well plates at 1×10^4 cells per well in DMEM/F-12 and DMEM, respectively, supplemented with 10% FCS and 1% Pen Strep for 24 h at 37° C. in 5% CO2 humidified atmosphere. The hydrogels were submerged in 70% ethanol for 1 hour to sterilize, rinsed with deionized water 3 times for 1 hour each to remove the residual ethanol, and mixed well with serum-free and phenol red-free DMEM at a hydrogel concentration of 10% w/v (J. Chang, et al., J Mater Chem B. 2015, 3, 1097-1105; Y. Tao, et al., Acta Biomater. 2013, 9, 5022-5030; M. Annaka, et al., Biomacromolecules. 2011, 12, 4011-4021; and S. Lamponi, et al., J. Biomater. Sci. Polym. Ed. 2012, 23, 555-575). The culture medium in each well was removed and medium (100 μL) with/without hydrogel and with/without vitamin C (2.2 mM) was added to each well and incubated for 24 hours. Hydrogen peroxide (10 200 μM final concentration) was added to half of the wells, and DPBS (10 μL) was added to the remaining wells as a control (A. Heckelen, et al., Acta Ophthalmol Scand. 2004, 82, 564-568; and H. S. Lee, et al., Invest. Ophthalmol. Vis. Sci. 2017, 58, 1196-1207). The well plates were incubated for 30 minutes. CellTiter-Glo luminescent cell viability assay was conducted according to the manufacturer's protocol. Briefly, the well plates were equilibrated to room temperature for 30 minutes. CellTiter-Glo Reagent (100 μL) was added to each well, and the contents were mixed for 10 minutes using an orbital shaker. The well plates were incubated at room temperature for 10 minutes before the luminescent signal was measured using the Synergy HT multi-mode microplate reader. ROS activity was detected using DCF. Briefly, DCF (100 20 μM final concentration) was added to each well, and the contents were incubated at room temperature for 30 minutes (Y. Ou, et al., Chem Biol Interact. 2009, 179, 103-109). The fluorescence signal was measured with excitation and emission wavelengths of 485 and 525 nm, respectively, using a TECAN M200 Plate Reader (Männedorf, Switzerland).
(§2) Screening of Hydrogen Peroxide, Vitamin C, and Glutathione Concentrations Using a Cell Viability Assay: ARPE-19 and LEC were seeded in 96-well plates at 1×10^4 cells per well in DMEM/F-12 and DMEM, respectively, supplemented with 10% FCS and 1% Pen Strep for 24 h at 37° C. in 5% CO2 humidified atmosphere. The culture medium in each well was removed and various media with vitamin C (2000 μM, 1000 μM, 500 μM, 100 μM, and 0 μM) or glutathione (10000 μM, 4000 μM, 2000 μM, 1000 μM, 500 μM, and 0 μM) was added to each well (100 μL) and incubated for 24 hours. Hydrogen peroxide (600 μM, 400 μM, 200 μM, 100 μM, 50 μM, and 0 μM) and a special case of vitamin C (2000 μM) was added (100 μL) 30 minutes before performing the viability assays. CellTiter-Glo luminescent cell viability assay was conducted according to the manufacturer's protocol. Briefly, the well plates were equilibrated to room temperature for 30 minutes. CellTiter-Glo Reagent (100 μL) was added to each well, and the contents were mixed for 10 minutes using an orbital shaker.

ARPE-19 [2] = experiment: CellTiter-Glo luminescent cell viability assay
Experimental: as §1, §2

[3] = Vitamin C remaining (stability) study, absorbance at 265 nm
Experimental: (§5) Chitosan (Sigma-Aldrich, low molecular weight, 1 mg/ml) was dissolved in acetic acid solution (1% w/w, 500 ml) for 60 min at 500 rpm. Sodium tripolyphosphate (1.75 mg/ml, 500 ml) was added dropwise into the chitosan solution to form nanoparticles over 2 hours. The nanoparticles were collected by centrifugation at 4000 rpm for 15 min at 21° C. The particles were washed with deionized water and again centrifuged. Vitamin C (10% w/w, 10 ml, pH 5.5) was added to the particles and equilibrated for 18 hours on an orbital shaker. Sodium alginate (FMC BioPolymer, Protanal PH, 1 mg/ml, 10 ml, pH 5.5) was added to the vitamin C and chitosan particle solution and sonicated for 30 min. Chitosan (Sigma-Aldrich, low molecular weight, 1 mg/ml in 1% w/w acetic acid solution, 10 ml) or gelatin (bloom 175, 1 mg/ml, 10 ml) was added to the vitamin c-chitosan-alginate particles and sonicated for 30 min. The particles were collected by centrifugation at 4000 rpm for 15 min at 21° C. and freeze dried. […] Concentration of vitamin C versus time was determined using methods as described elsewhere in the Examples.
(§6) Either the particle solutions or the chemically-stabilized Vitamin C solutions were incubated in the hydrogels at 37° C.
(§7) For each solution tested, a control group with no vitamin C and a test group with vitamin C (1% w/w) alone in DPBS were included. […] All solutions were kept at 37° C. throughout the release studies. The amount of viable vitamin C remaining in the solutions was measured using a Synergy HT multi-mode microplate reader (BioTek, Winooski, Vt.) at wavelength 265 nm and compared to the control groups to determine the amount of viable vitamin C left in the solutions. To measure the concentration of vitamin C, solutions with particles were centrifuged at 3220 rpm for 5 min and solution (500 uL) was removed and placed into a 96-well plate measured on days 0, 1, 2, 3, 4, 7, 8, 9, 10, 11, and 14. After two weeks, solutions with higher concentrations of vitamin C were measured every other day until vitamin C was undetectable. For the particle solutions, DPBS solutions (500 uL) was added back into the solution to maintain a constant volume.

LEC [4] = experiment: ROS activity, DCF assay; type: cell-based, human
Experimental: (§3) Cell Viability and ROS Activity Assays. […] The well plates were incubated for 30 minutes. […] ROS activity was detected using DCF. […] The fluorescence signal was measured with excitation and emission wavelengths of 485 and 525 nm, respectively, using a TECAN M200 Plate Reader (Männedorf, Switzerland).
(§4) Antioxidant Activity of Vitamin C in Reducing Reactive Oxygen Species (ROS) Activity Using DCF Assay: The ROS activity induced by hydrogen peroxide (200 μM for 30 minutes) of ARPE-19 and LEC treated with vitamin C (0, 100, and 1000 μM for 30 minutes or 24 hours) was determined using dichlorofluorescein assay. Briefly, LEC and ARPE-19 cells were cultured as aforementioned.

ARPE-19 [5] = experiment: ROS activity, DCF assay; type: cell-based, human
Experimental: as §3, §4

[6] = 2 mM
Experimental: as §5, §6, §7

[7] = Sodium ascorbate degradation and release from polyacrylamide hydrogels; type: physicochemical; settings: PBS, lag time about 36 hours after making
Experimental: The 2 mM sodium ascorbate solutions in PBS, which was diluted 20× before measurement as previously described, show an exponential-like decay in concentration over time (note that the y-axis is plotted on a log scale). Additionally, its concentration at time 0 was 1.4 mM, not 2 mM as made, since there was a lag time between when the solutions were made and when the experiment started. This lag time (about 36 hours) was due to the delayed gelation time of polyacrylamide hydrogels. The polymer solutions with sodium ascorbate gelled within 18 hours. However, the polymer solutions without sodium ascorbate took twice as long to gel.
The gelled polyacrylamide hydrogels (1 ml) with or without sodium ascorbate were submerged in 10 ml of PBS. […] The 1 ml aliquots were measured without dilution, since the sodium ascorbate concentrations were already within the linear region of the standard curve.
The absorbance readings of the hydrogels without sodium ascorbate increase with time. Since there was no sodium ascorbate added to these hydrogels, the increase in absorbance could be due to the small pieces of polymer leached out from the hydrogel causing UV light interference. […] The absorbance readings of hydrogels without sodium ascorbate can be subtracted from the ones with sodium ascorbate to obtain the true absorbance reading due to the varying concentrations of sodium ascorbate.

[8] = glutathione, all tested conditions up to 10000 μM, 24 hours
[9] = Example 7: hydrogen peroxide 200 μM final, 30 minutes, vs non-treated
[10] = H2O2 200 μM and 400 μM, 30 minutes
[11] = hydrogen peroxide 600 μM, 30 minutes
[12] = hydrogen peroxide at or below 100 μM, 30 minutes
[13] = hydrogen peroxide 200 μM, 30 minutes, compared to control
[14] = vitamin C 100 μM for 24 hours, H2O2 200 μM
[15] = vitamin C 100 μM, after 24 hours, not treated with H2O2
[16] = vitamin C 100 and 1000 μM for 30 minutes

vitamin C remaining ([3]; past 14 days, glutathione 4-10 mM (FIG. 25)): More than half
Structure (SMILES): N[C@@H](CCC(=O)N[C@@H](CS)C(=O)NCC(=O)O)C(=O)O [Glutathione, glutathione]
change of cell viability (LEC [1]; glutathione 4000 μM and 10000): decreased | cell viability (LEC [1]; [8]): above 70% | change of cell viability (ARPE-19 [2]; glutathione concentration above 100 μM): increased | cell viability (ARPE-19 [2]; [8]): above 70% | maintenance of vitamin C concentrations ([3]; particles, presence of glutathione (FIGS. 18-19)): improved maintenance of vitamin C concentrations

Structure (SMILES): OO [Hydrogen peroxide, hydrogen peroxide]
cell viability (LEC [1]; [9]): statistically lower | cell viability (LEC [1]; [10]): significantly decreased the cell viability | cell viability (LEC [1]; [11]): significantly decreased cell viability | cell viability (LEC [1]; [12]): did not affect cell viability | cell viability (ARPE-19 [2]; [9]): approximately the same or even higher | cell viability (ARPE-19 [2]; [10]): had no effect | cell viability (ARPE-19 [2]; [11]): significantly decreased cell viability | cell viability (ARPE-19 [2]; [12]): did not affect cell viability | increase in ROS activity (LEC [4]; hydrogen peroxide 200 μM): 1.5 times | ROS activity (LEC [4]; [13]): increased | ROS activity (ARPE-19 [5]; [13]): did not affect; also recorded: did not significantly respond

vitamin C remaining ([6]; 72 h): 10% | vitamin C remaining ([6]; 5 days): 0%
Structure (SMILES): O=C1O[C@H]([C@@H](O)CO)C(O)=C1O [Vitamin C, ascorbic acid]
reduction of ROS induced by hydrogen peroxide (LEC [4]; [14]): not effective | ROS activity (LEC [4]; [15]): returned to the same level as the control | ROS activity (LEC [4]; vitamin C 1000 μM for 24 hours with H2O2): the same ROS activity as the no H2O2 no vitamin C control | ROS activity (LEC [4]; [16]): 15-30% | reduction of ROS induced by hydrogen peroxide (ARPE-19 [5]; [14]): not effective | ROS activity (ARPE-19 [5]; [15]): returned to the same level as the control | ROS activity (ARPE-19 [5]; vitamin C 1000 μM for 24 hours): did not return to the normal control level | ROS activity (ARPE-19 [5]; [16]): 15-30%

concentration of 2 mM sodium ascorbate solution at time 0 [7]: 1.4 mM
Structure (SMILES): O=C1O[C@H]([C@@H](O)CO)C([O-])=C1O.[Na+] [sodium ascorbate]
